Data from article PMC4704863 (Angewandte Chemie (International ed. in English), 2014).
Ends that are not written are not given here. Peptide text beside a SMILES is read from it. * marks the point of attachment. Palmitoyl = CCCCCCCCCCCCCCCC(=O)*

Columns and labels:
hY4R [1] = molecular target: T1, hY4R (Homo sapiens, UniProt P50391); type: cell-based; conditions: Col-24 epithelial layers, response to 10 nM hPP after prestimulation
hY4R [2] = molecular target: T1, hY4R; test: Arr3–receptor interaction by BRET; type: cell-based; conditions: arr3 association after 10 min
Col-24 epithelial layers = test: Antisecretory responses; type: cell-based, human
[3] = molecular target: human neuropeptide Y receptor Y4 (hY4R) (human) (UniProt P50391); test: radioligand binding
[4] = molecular target: human neuropeptide Y receptor Y4 (hY4R) (human, UniProt P50391 1-375); test: radioligand binding
[5] = Col-24 epithelial layers, 100 nM peptide

human neuropeptide Y receptor Y4 (hY4R) (human), sequence (P50391 whole entry): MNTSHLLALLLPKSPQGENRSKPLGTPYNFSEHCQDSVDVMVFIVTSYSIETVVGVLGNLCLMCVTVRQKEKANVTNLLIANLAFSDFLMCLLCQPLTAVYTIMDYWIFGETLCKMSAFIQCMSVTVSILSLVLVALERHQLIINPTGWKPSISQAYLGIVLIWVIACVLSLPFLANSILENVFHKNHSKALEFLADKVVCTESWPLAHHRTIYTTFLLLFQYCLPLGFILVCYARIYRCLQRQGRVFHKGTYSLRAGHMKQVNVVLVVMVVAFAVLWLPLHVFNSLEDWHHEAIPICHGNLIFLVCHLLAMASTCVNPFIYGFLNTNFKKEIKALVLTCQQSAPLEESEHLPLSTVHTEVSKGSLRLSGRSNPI
T1 sequence (P50391 whole entry): as above
human neuropeptide Y receptor Y4 (hY4R), sequence (P50391 whole entry): as above

IC50 [3]	Molecule	Desensitization of hY4R after prestimulation (hY4R [1])	arr3 recruitment, maximal netBRET (BRETmax) (hY4R [2])	Isc response, time course (Col-24 epithelial layers; [5])	also measured
	CCCCCCCCCCCCCCCC(=O)NCCCC[C@H](NC(=O)[C@H](C)NC(=O)[C@H](Cc1ccc(O)cc1)NC(=O)[C@H](CCC(N)=O)NC(=O)[C@H](C)NC(=O)[C@H](CCSC)NC(=O)[C@H](CCC(N)=O)NC(=O)[C@H](CCC(=O)O)NC(=O)[C@@H]1CCCN1C(=O)[C@@H](NC(=O)[C@H](C)NC(=O)[C@H](CC(N)=O)NC(=O)[C@H](CC(=O)O)NC(=O)CNC(=O)[C@@H]1CCCN1C(=O)[C@H](Cc1ccc(O)cc1)NC(=O)[C@@H](NC(=O)[C@@H]1CCCN1C(=O)[C@H](CCC(=O)O)NC(=O)[C@H](CC(C)C)NC(=O)[C@@H]1CCCN1C(=O)[C@H](C)N)C(C)C)[C@@H](C)O)C(=O)N[C@@H](CC(=O)O)C(=O)N[C@@H](CC(C)C)C(=O)N[C@@H](CCCNC(=N)N)C(=O)N[C@@H](CCCNC(=N)N)C(=O)N[C@@H](Cc1ccc(O)cc1)C(=O)N[C@H](C(=O)N[C@@H](CC(N)=O)C(=O)N[C@@H](CCSC)C(=O)N[C@@H](CC(C)C)C(=O)N[C@H](C(=O)N[C@@H](CCCNC(=N)N)C(=O)N[C@@H](CCC(N)=O)C(=O)N[C@@H](CCCNC(=N)N)C(=O)N[C@@H](Cc1ccc(O)cc1)C(N)=O)[C@@H](C)O)[C@@H](C)CC [3A] (H-APLEPVYPGDNATPEQMAQYAK(Palmitoyl)DLRRYINMLTRQRY-NH2; N-terminus and C-terminus assumed)	concentration-dependent desensitization	increased arr3 recruitment	prolonged reductions in Isc	Concentration–response in Col-24 cells (potency and efficacy) (Col-24 epithelial layers; Col-24 cells, Isc): good activity and increased efficacy; Onset of Isc response (Col-24 epithelial layers; [5]): delayed; Maximum of Isc response (Col-24 epithelial layers; Col-24 epithelial layers, 100 nM peptide, compared with 2A): higher maximum than the parental peptide
94.2 nM	PEG22-modified [K^22,Q^34]hPP (5A) (peptide)				
	APLEPVYPGDNATPEQMAQYAKDLRRYINMLTRQRY-NH2 [2A]	concentration-dependent desensitization	robust arr3 recruitment	rapid and transient activity	Time of maximum Isc effect (Col-24 epithelial layers; [5]): about 5 min
1.2 nM	palmitoylated [K^22,Q^34]hPP (3A) (peptide)				
36.8 nM	PEG5-modified [K^22,Q^34]hPP (4A) (peptide)				
	APLEPVYPGDNATPEQMAQYAKDLRRYINMLTRQRY (ends and bridges not checked) [lead peptide 2A ([Q^34]hPP core sequence, Obinepitide)]				IC50 [4]: 0.5 nM
